Measurements from patent US20210139959A1, “MODIFIED NUCLEOTIDE TRIPHOSPHATES FOR MOLECULAR ELECTRONIC SENSORS” (priority 2016, published 2021).

System: polymerase, e.g., E. coli Pol I
Conditions: DNA template A20-C3-A30-G (SEQ ID NO: 3), FIG. 9; T signals are increased current; interpretation of the data
From the text: In this example, 7-deaza-dGTP (see FIG. 14B) was used as a modified dGTP. The signals were obtained for the DNA template {GTCA}10-[sequence] (SEQ ID NO: 2), comprising the 7-deaza modified dGTP.
In this embodiment, the signal data are obtained for the DNA template {GTCA}10-[sequence] (SEQ ID NO: 2), when a modified dGTP is used (7-deaza dGTP of FIG. 14B).

Which “modified dGTP incorporation signal (current)” value does the source give for `Nc1nc2c(ccn2[C@H]2C[C@H](O)[C@@H](COP(=O)(O)OP(=O)(O)OP(=O)(O)O)O2)c(=O)[nH]1` [7-deaza dGTP, 7-deaza-2′-deoxyguanosine-5′-triphosphate] here?
The value was “reduction in current”.
